The target in test [1] is BCL2 WT (Homo sapiens (Human), UniProt P10415). Briefly: TR-FRET competitive binding assay, BCL2 WT. The following applies: Ki determined from IC50, read-out: TR_FRET EKI_Bcl2 WT. Here is the method:
(§1) The relative binding potency of each compound was determined in a competitive binding assay using time resolved-fluorescence resonance energy transfer (TR-FRET). The method utilised a fluorescein labelled peptide derived from PUMA (5Flu-Ahx-[…]-NH2 wherein Ahx means 6-hexanoic acid monomer and the amino acid sequence is referred to as SEQ ID:01) which binds to a terbium labelled BCL2 or BCLXL protein. The degree of binding or corresponding compound inhibition can be quantified by the TR-FRET signal between the terbium donor and fluorescein acceptor.
(§2) The human BCL2_wild-type (also named BCL2_wt), BCL2_G101V mutant and BCLXL_wild-type were E. coli expressed as a N-terminal Halo-fusion proteins and singly labelled with Terbium on the Halo protein to afford the following amino acid sequences:
(§3) wherein the BCL2(1-207) sequence corresponds to UniProtKB® primary accession number P10415 and the BCLXL(2-196) sequence corresponds to UniProtKB® primary accession number Q07817-1.
(§4) The assay was performed in a 40 μL volume in white 384-standard well plates (Corning #3574). An 11-point serial dilution of each compound was prepared in DMSO and transferred directly to plate followed by addition of fluorescein labelled peptide and lastly protein. Final assay conditions were 0.5 nM BCL2_wt, BCL2_G101V, BCL2_D103Y, BCL2_F104I, BCL2_D111A or BCLXL_wt, 2 or 20 nM fluorescein labelled peptide, 50 mM Hepes pH 7.5, 150 mM NaCl, 0.5 mM TCEP (Tris(2-carboxyethyl)phosphine), 0.05% Tween 20, 5% DMSO. The mixture was incubated for 2 hours at 23° C.
(§5) TR-FRET measurements were performed on a Biotek Synergy Neo plate reader. TR-FRET was measured by excitation of the Terbium-donor at 340 nm and subsequent (delay time 100 μs) measurement of terbium and fluorescein emission at 495 nm and 520 nm, respectively, over a collection time of 300 μs. The TR-FRET signal was calculated as the emission-ratio at 520 nm over 495 nm.
(§6) The TR-FRET ratio readout for test compounds was normalized against 0% inhibition controls wells and 100% inhibition control wells. Test compound potency (IC50) was estimated by nonlinear regression using the sigmoidal dose-response (variable slope) using Xlfit 4 (IDBS, Guildford, Surrey, UK, model 205). Were the IC50 could not be determined the % inhibition at the highest tested concentration is given.
(§7) y=(A+((B−A)/(1+((C/x)^D))))
(§8) where y is the normalized TR-TRET ratio measurement for a given concentration of test compound, x is the concentration of test compound, A is the estimated efficacy (% inhibition) at infinite compound dilution, and B is the maximal efficacy (% inhibition). C is the IC50 value and D is the Hill slope coefficient.
(§9) The K1 values were determined from the IC50 values according to Cer et al, Nucleic Acids Res, 2009, July 1; 37 (WebServer issue): W441-W445.

The target in test [2] is BCL2 G101V (Homo sapiens, UniProt P10415, G101V). The test can be described thus: TR-FRET competitive binding assay, BCL2 G101V. Particulars: BCL2 G101V; Ki determined from IC50; read-out: TR_FRET EKI_Bcl2 G101V. How it is done:
as §1, §2, §3, §4, §5, §6, §7, §8, §9

Test [3] has as its system BCL2 G101V. Briefly: TR-FRET competitive binding assay, BCL2 G101V. More on the design: species or system human. Particulars: ratio Ki BCL2 G101V / Ki BCL2 WT. Here is the method: as §1, §2, §3, §4, §5, §6, §7, §8, §9
A general note: Time-resolved FRET reads energy transfer from a long-lived donor to a nearby acceptor.

The target of test [4] is BCL2 D103Y (Homo sapiens, UniProt P10415, D103Y). Briefly: TR-FRET competitive binding assay, BCL2 D103Y. The following applies: Ki determined from IC50, read-out: TR_FRET EKI_Bcl2 D103Y. How it is done: as §1, §2, §3, §4, §5, §6, §7, §8, §9
Test [5] has as its target BCLXL WT (Homo sapiens (Human), UniProt Q07817). The test can be described thus: TR-FRET competitive binding assay, BCLXL WT. The following applies: for Ki: BCLXL WT, Ki determined from IC50, read-out: TR_FRET EKI BclxL; for TR_FRET EKI BCLxL/WT selectivty ratio: ratio Ki BCLxL / Ki BCL2 WT. How it is done:
as §1, §2, §3, §4, §5, §6, §7, §8, §9

For test [6], the system named is KMS-12-PE Bcl-2 WT. Briefly: In vitro cytotoxicity CellTiter-Glo 48 h, KMS-12-PE Bcl-2 WT. Format: cell-based. The following applies: Homo sapiens, KMS-12-PE, C50 = concentration needed to reach 50% of the cellular viability. How it is done: KMS-12-PE (ACC 606) were purchased from the Leibniz-Institute DSMZ (Braunschweig, Germany) and were grown at 37° C. in a humidified atmosphere with […] in media recommended by the suppliers. Lentiviral particles containing Bcl-2 wild type (also named “Bcl2 WT”) and Bcl-2 mutated on G101V (also named “Bcl2 G101V”) were cloned into pcLV-CMV-DEST-IRES-TagRFP. Lentiviral particles (1×106) were mixed with Polybrene at 8 µg/ml and transduced by spinoculation for 1 h at 32° C. and incubated overnight. After 8 days, TagRFP positive-cells were sorted by FACS. BCL2 expression was monitored by immunoblotting using anti-Flag and anti-BCL2 antibodies.
Cellular viability was monitored with the cell viability assay (CellTiter-Glo®) on KMS-12-PE WT and G101V cell lines. The CellTiter-Glo® (CTG) Luminescent Cell Viability Assay (from Promega) is a homogeneous method to determine the number of viable cells in culture based on quantitation of the ATP present, which signals the presence of metabolically active cells.
Dose response of compounds are performed with 10 mM stock solutions (DMSO), 11-points curve, in a 384-well compound plate. The assay plate is prepared by stamping 40 nL from compound dilution plate of all different concentrations (e.g. 10 mM to have final […] assay test) into a cell culture microplate, using Echo acoustic liquid handling (Labcyte, Beckman). 40 μl of cell solution is added and cells are incubated with compounds for 48 h at 37° C., 5% CO2. CTG was added to the cells (according to the manufacturer instructions) and luminescence intensity was recorded using the Pherastar plate reader (BMG).
This assay provides in vitro cellular potency of the tested Bcl-2 inhibitors, measuring the C50, defined as the concentration needed to reach 50% of the cellular viability.
A general note: In ATP-based viability assays light output follows the ATP content of the culture.

Structures are written as SMILES.

BCLXL WT, sequence (Q07817 other isoform, or with tags, fused parts or gaps): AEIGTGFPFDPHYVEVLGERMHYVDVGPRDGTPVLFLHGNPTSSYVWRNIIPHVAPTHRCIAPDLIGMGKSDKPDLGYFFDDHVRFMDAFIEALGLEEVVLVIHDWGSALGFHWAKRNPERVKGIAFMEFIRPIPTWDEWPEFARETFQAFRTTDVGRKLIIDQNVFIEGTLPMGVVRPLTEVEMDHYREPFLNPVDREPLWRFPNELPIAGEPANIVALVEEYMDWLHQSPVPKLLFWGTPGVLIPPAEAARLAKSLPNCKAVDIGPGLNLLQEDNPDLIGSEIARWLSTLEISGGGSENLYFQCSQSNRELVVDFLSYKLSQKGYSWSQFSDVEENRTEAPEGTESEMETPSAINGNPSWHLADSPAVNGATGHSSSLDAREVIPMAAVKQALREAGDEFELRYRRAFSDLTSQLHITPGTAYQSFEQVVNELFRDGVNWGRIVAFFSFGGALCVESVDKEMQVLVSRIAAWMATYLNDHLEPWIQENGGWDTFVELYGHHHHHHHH

With `COc1ccc(N(C(=O)c2cc(-c3cc4c(cc3C(=O)N3Cc5ccccc5C[C@H]3C)CN(C(=O)Cc3ccc(OCCN5CCOCC5)cc3)CC4)n(C)c2C)c2ccccc2)cc1C#N` [Example 182, N-(3-cyano-4-methoxy-phenyl)-1,2-dimethyl-5-[7-[(3R)-3-methyl-3,4-dihydro-1H-isoquinoline-2-carbonyl]-2-[2-[4-(2-morpholinoethoxy)phenyl]acetyl]-3,4-dihydro-1H-isoquinolin-6-yl]-N-phenyl-pyrrole-3-carboxamide], the Ki is 0.11 nM in test [1], 1.5 nM in test [2], 0.3 nM in test [4] and 11.8 nM in test [5]. For the same molecule, the “TR_FRET EKI G101V/WT selectivty ratio” value in test [3] stood at 13.3. The “TR_FRET EKI BCLxL/WT selectivty ratio” value in test [5] was found to be 107.1. Further, half-maximal inhibition in test [6] (IC50) required 0.0097 µM.

For `COc1ncc(N(C(=O)c2cc(-c3cc4c(cc3C(=O)N3Cc5ccccc5C[C@H]3C)CN(C(=O)Cc3ccc(OCCN5CCOCC5)cc3)CC4)n(C)c2C)c2ccccc2)cc1F` [Example 183, N-(5-fluoro-6-methoxy-3-pyridyl)-1,2-dimethyl-5-[7-[(3R)-3-methyl-3,4-dihydro-1H-isoquinoline-2-carbonyl]-2-[2-[4-(2-morpholinoethoxy)phenyl]acetyl]-3,4-dihydro-1H-isoquinolin-6-yl]-N-phenyl-pyrrole-3-carboxamide], the Ki in test [1] amounted to 0.13 nM; in test [2], 5.6 nM; in test [4] it was 0.35 nM; in test [5] it was 15.1 nM. Also, the “TR_FRET EKI G101V/WT selectivty ratio” value in test [3] came out at 43.8. Also, in test [5], the “TR_FRET EKI BCLxL/WT selectivty ratio” value is 117.3. Moreover, it took 0.0143 µM to reach half-maximal inhibition in test [6] (IC50).

Regarding `Cc1c(C(=O)N(c2ccccc2)c2cnn(C)c2)cc(-c2cc3c(cc2C(=O)N2Cc4ccccc4C[C@H]2C)CN(C(=O)Cc2ccc(OCCN4CCOCC4)cc2)CC3)n1C` [Example 184, 1,2-dimethyl-5-[7-[(3R)-3-methyl-3,4-dihydro-1H-isoquinoline-2-carbonyl]-2-[2-[4-(2-morpholinoethoxy)phenyl]acetyl]-3,4-dihydro-1H-isoquinolin-6-yl]-N-(1-methylpyrazol-4-yl)-N-phenyl-pyrrole-3-carboxamide], the Ki in test [1] stood at 0.03 nM; in test [2] it was 2 nM; in test [4], 0.09 nM; in test [5], 12.3 nM. Also, the “TR_FRET EKI G101V/WT selectivty ratio” value in test [3] is given as 66.2. Besides, the “TR_FRET EKI BCLxL/WT selectivty ratio” value in test [5] came out at 411.3. The IC50 – broadly, the point on the concentration scale where inhibition reaches its midpoint – in test [6] amounted to 0.0061 µM.

For `Cc1c(N(C(=O)c2cc(-c3cc4c(cc3C(=O)N3Cc5ccccc5C[C@H]3C)CN(C(=O)Cc3ccc(OCCN5CCOCC5)cc3)CC4)n(C)c2C)c2ccc(F)cc2)cc(C#N)n1C` [Example 185, N-(5-cyano-1,2-dimethyl-pyrrol-3-yl)-N-(4-fluorophenyl)-1,2-dimethyl-5-[7-[(3R)-3-methyl-3,4-dihydro-1H-isoquinoline-2-carbonyl]-2-[2-[4-(2-morpholinoethoxy)phenyl]acetyl]-3,4-dihydro-1H-isoquinolin-6-yl]pyrrole-3-carboxamide], the Ki in test [1] amounted to 0.06 nM; in test [2] it was 1.5 nM; in test [4], 0.13 nM; in test [5] it was 5.9 nM. In test [3], the “TR_FRET EKI G101V/WT selectivty ratio” value came out at 23.4. Also, in test [5], the “TR_FRET EKI BCLxL/WT selectivty ratio” value was 92.8. Further, the IC50 in test [6] amounted to 0.0051 µM.

Take `Cc1nn(C)cc1N(C(=O)c1cc(-c2cc3c(cc2C(=O)N2Cc4ccccc4C[C@H]2C)CN(C(=O)Cc2ccc(OCCN4CCOCC4)cc2F)CC3)n(C)c1C)c1ccccc1` [Example 187, N-(1,3-dimethylpyrazol-4-yl)-5-[2-[2-[2-fluoro-4-(2-morpholinoethoxy)phenyl]acetyl]-7-[(3R)-3-methyl-3,4-dihydro-1H-isoquinoline-2-carbonyl]-3,4-dihydro-1H-isoquinolin-6-yl]-1,2-dimethyl-N-phenyl-pyrrole-3-carboxamide]: the Ki in test [1] was 0.03 nM; in test [2], 2.7 nM; in test [4], 0.08 nM; in test [5], 17.3 nM. For the same molecule, in test [3], the “TR_FRET EKI G101V/WT selectivty ratio” value worked out at 78.9. The “TR_FRET EKI BCLxL/WT selectivty ratio” value in test [5] is given as 507.9. Besides, in test [6], the 50% inhibitory concentration (IC50) worked out at 0.0069 µM.

As for `Cc1nn(C)cc1N(C(=O)c1cc(-c2cc3c(cc2C(=O)N2Cc4ccccc4C[C@H]2C)CN(C(=O)Cc2ccc(OCCN4CCOCC4)cc2)CC3)n(C)c1C)c1ccccc1` [Example 188, N-(1,3-dimethylpyrazol-4-yl)-1,2-dimethyl-5-[7-[(3R)-3-methyl-3,4-dihydro-1H-isoquinoline-2-carbonyl]-2-[2-[4-(2-morpholinoethoxy)phenyl]acetyl]-3,4-dihydro-1H-isoquinolin-6-yl]-N-phenyl-pyrrole-3-carboxamide], the Ki in test [1] was found to be 0.03 nM; in test [2], 2.2 nM; in test [4], 0.09 nM; in test [5], 23.9 nM. In test [3], the “TR_FRET EKI G101V/WT selectivty ratio” value is reported as 71.6. For the same molecule, the “TR_FRET EKI BCLxL/WT selectivty ratio” value in test [5] turned out to be 769.6. This molecule returned an IC50 in test [6] of 0.0113 µM.

Regarding `COCC(=O)N1CCc2cc(-c3cc(C(=O)N(c4ccccc4)c4cc(C#N)n(C)c4C)c(C)n3C)c(C(=O)N3Cc4ccccc4C[C@H]3CN3CCCCC3)cc2C1` [Example 189, N-(5-cyano-1,2-dimethyl-pyrrol-3-yl)-5-[2-(2-methoxyacetyl)-7-[(3S)-3-(1-piperidylmethyl)-3,4-dihydro-1H-isoquinoline-2-carbonyl]-3,4-dihydro-1H-isoquinolin-6-yl]-1,2-dimethyl-N-phenyl-pyrrole-3-carboxamide], the Ki is 0.19 nM in test [1], 17.4 nM in test [2], 1.99 nM in test [4] and 33.4 nM in test [5]. Also, the “TR_FRET EKI G101V/WT selectivty ratio” value in test [3] is 92.0. For the same molecule, the “TR_FRET EKI BCLxL/WT selectivty ratio” value in test [5] turned out to be 176.8. Moreover, inhibition in test [6] was half-maximal at 0.0299 µM (IC50).

The values are drawn from patent US20250179047A1, “5-[7-(3,4-DIHYDRO-1H-ISOQUINOLINE-2-CARBONYL)-1,2,3,4 TETRAHYDROISOQUINOLIN-6-YL]-1H-PYRROLE-3-CARBOXAMIDE DERIVATIVES, PHARMACEUTICAL COMPOSITIONS CONTAINING THEM AND THEIR USES AS PRO-APOPTOTIC AGENTS” (LES LABORATOIRES SERVIER, priority 2022, published 2025).
